{
  "source": "paper PMC5161585",
  "about": "(Nature, 2016)",
  "key": {"[1]": {"target": "T1, κOR (Homo sapiens, UniProt P41145)", "T1 sequence (P41145 whole entry)": "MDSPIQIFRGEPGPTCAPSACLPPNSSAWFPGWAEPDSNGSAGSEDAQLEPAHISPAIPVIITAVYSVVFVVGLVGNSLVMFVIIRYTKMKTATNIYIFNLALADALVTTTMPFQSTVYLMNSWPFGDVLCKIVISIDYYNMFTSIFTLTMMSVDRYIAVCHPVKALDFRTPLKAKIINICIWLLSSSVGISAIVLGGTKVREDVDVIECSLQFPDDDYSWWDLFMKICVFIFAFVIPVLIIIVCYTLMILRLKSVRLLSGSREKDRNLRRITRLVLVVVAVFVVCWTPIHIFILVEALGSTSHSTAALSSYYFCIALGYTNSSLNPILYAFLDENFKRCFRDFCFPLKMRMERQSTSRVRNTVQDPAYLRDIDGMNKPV", "assay": "Gi/o Glosensor assay at κOR", "type": "cell-based"}, "[2]": {"target": "T2, human μOR (Homo sapiens, UniProt P35372)", "T2 sequence (P35372 whole entry)": "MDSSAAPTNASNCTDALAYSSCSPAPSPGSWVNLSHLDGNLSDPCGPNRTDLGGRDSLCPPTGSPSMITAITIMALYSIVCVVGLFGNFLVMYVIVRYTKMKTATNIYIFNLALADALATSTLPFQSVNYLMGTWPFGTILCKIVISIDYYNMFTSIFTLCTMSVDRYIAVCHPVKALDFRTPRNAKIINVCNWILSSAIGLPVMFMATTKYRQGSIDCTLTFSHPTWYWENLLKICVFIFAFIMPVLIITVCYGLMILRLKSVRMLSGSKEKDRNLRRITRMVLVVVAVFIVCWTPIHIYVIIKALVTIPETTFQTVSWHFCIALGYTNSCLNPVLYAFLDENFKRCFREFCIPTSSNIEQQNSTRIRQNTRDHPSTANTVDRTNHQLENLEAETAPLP", "assay": "β-arrestin-2 recruitment by BRET in HEK-293T cells", "type": "cell-based"}, "[3]": {"tested_on": "C57BL/6J mice", "assay": "Mouse tail-flick assay", "details": "in vivo"}, "[4]": {"tested_on": "mice", "assay": "Conditioned place preference", "type": "in vivo, mouse", "details": "morphine 10 mg/kg, PZM21 20 mg/kg, TRV130 1.2 mg/kg"}, "[5]": {"tested_on": "Oprm1−/− mice", "assay": "Hotplate assay in μOR knockout mice", "type": "in vivo, mouse", "details": "morphine 10 mg/kg, PZM21 20 mg/kg, 30 min"}, "[6]": {"assay": "Pharmacokinetics of PZM21, serum and brain levels", "type": "in vivo, mouse", "details": "20 mg/kg subcutaneous, mice"}, "[7]": {"tested_on": "mice", "assay": "Open field locomotor response", "type": "in vivo, mouse", "details": "morphine 10 mg/kg, PZM21 20 mg/kg"}, "[8]": {"assay": "Metabolism in mouse liver microsomes", "type": "in vitro ADME", "details": "over one hour, 80 μM"}, "[9]": {"tested_on": "320 non-olfactory GPCRs", "assay": "PRESTO-Tango GPCRome β-arrestin recruitment screen", "type": "cell-based", "details": "10 μM screen, hits re-tested in full dose–response"}, "[10]": {"target": "nociceptin receptor (Homo sapiens, UniProt P41146)", "sequence (P41146 whole entry, species assumed)": "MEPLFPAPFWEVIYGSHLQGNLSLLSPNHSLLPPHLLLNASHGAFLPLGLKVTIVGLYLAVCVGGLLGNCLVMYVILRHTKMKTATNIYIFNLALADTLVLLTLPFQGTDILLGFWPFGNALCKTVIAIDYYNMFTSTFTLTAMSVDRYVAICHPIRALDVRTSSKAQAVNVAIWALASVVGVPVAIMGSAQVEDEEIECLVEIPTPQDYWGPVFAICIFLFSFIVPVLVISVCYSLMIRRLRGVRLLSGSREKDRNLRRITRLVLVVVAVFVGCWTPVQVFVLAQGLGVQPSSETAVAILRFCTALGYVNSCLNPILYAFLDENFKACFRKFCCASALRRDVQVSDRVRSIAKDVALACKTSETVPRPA", "assay": "Gi/o Glosensor assay at nociceptin receptor", "type": "cell-based"}, "[11]": {"tested_on": "C57BL/6J mice", "assay": "Mouse hotplate analgesia assay", "details": "15 min after the highest dose tested (40 mg/kg), subcutaneous"}, "[12]": {"tested_on": "mice", "assay": "Catalepsy bar test", "type": "in vivo, mouse", "details": "PZM21 20 mg/kg, morphine 10 mg/kg"}, "[13]": {"target": "T1, κOR", "assay": "Radioligand binding at κOR", "details": "read-out: κOR Ki"}, "[14]": {"tested_on": "mice", "assay": "Accumulated faecal boli quantification", "type": "in vivo, mouse", "details": "morphine 10 mg/kg, PZM21 20 mg/kg"}, "[15]": {"target": "T3, δOR (Homo sapiens, UniProt P41143)", "T3 sequence (P41143 whole entry)": "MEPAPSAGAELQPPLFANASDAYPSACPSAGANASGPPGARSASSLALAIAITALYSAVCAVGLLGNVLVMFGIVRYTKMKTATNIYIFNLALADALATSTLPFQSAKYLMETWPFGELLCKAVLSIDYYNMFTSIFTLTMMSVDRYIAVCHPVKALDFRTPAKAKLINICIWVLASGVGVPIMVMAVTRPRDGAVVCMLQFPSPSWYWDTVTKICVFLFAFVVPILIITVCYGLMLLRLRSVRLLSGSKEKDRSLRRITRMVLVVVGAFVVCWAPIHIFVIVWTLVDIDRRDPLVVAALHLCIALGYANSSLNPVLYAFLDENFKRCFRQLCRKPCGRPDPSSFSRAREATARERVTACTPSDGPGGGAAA", "assay": "Radioligand binding at δOR", "details": "read-out: δOR Ki"}, "[16]": {"tested_on": "mice", "assay": "Whole-body mouse plethysmography", "type": "in vivo", "details": "equi-analgesic doses: PZM21 40 mg/kg, TRV130 1.2 mg/kg, morphine 10 mg/kg"}, "[17]": {"target": "T3, δOR", "assay": "Gi/o Glosensor assay at δOR", "type": "cell-based"}, "[18]": {"tested_on": "mice", "assay": "Formalin injection nociception assay", "type": "in vivo, mouse", "details": "morphine 10 mg/kg, PZM21 40 mg/kg"}, "[19]": {"tested_on": "C57BL/6J mice", "assay": "Hotplate assay subcategorized into affective and reflexive responses", "type": "in vivo, mouse", "details": "for analgesia on affective versus reflexive component of pain: morphine 10 mg/kg, PZM21 20 mg/kg"}, "[20]": {"target": "SSTR4 (Homo sapiens, UniProt P31391)", "sequence (P31391 whole entry, species assumed)": "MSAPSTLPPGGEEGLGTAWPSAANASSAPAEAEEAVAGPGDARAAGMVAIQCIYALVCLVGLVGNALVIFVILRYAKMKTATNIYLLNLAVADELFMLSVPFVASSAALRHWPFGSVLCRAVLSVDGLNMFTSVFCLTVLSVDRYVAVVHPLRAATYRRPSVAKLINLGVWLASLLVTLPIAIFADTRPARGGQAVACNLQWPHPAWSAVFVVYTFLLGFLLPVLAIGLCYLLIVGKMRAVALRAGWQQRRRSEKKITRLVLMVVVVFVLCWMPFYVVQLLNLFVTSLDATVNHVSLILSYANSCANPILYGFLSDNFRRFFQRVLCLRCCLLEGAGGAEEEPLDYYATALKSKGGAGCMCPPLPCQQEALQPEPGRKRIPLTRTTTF", "assay": "Gi/o Glosensor assay measuring SSTR4 activation", "type": "cell-based"}, "[21]": {"target": "T2, human μOR", "assay": "BRET-based", "type": "cell-based", "details": "read-out: EC50 in CAMYEL-based Gi/o signalling assay"}, "[22]": {"target": "T2, human μOR", "assay": "Receptor internalization, PathHunter GPCR internalization assay in U2OS cells", "type": "cell-based"}},
  "note": "pEC50, pKi: −log10 of the molar value. “Also recorded” adds a separate entry of the source.",
  "data": [
    {"smiles": "COC(=O)[C@@H]1C[C@H](OC(=O)c2ccccc2)C(=O)[C@H]2[C@@]1(C)CC[C@H]1C(=O)O[C@H](c3ccoc3)C[C@]21C", "note": "[Herkinorin, herkinorin]", "values": [
      {"measurement": "κOR agonist activity (in words)", "setting": "[1]", "value": "potent agonists of the κOR"},
      {"measurement": "arrestin recruitment in BRET assay in the absence of GRK2 overexpression", "setting": "[2]", "value": "robustly recruits arrestin"}
    ]},
    {"smiles": "C[C@@H](Cc1ccsc1)NC(=O)NC[C@H](Cc1ccc(O)cc1)N(C)C", "note": "[PZM21]", "values": [
      {"measurement": "analgesic effect in tail-flick assay", "setting": "[3]", "value": "no analgesic effect"},
      {"measurement": "conditioned place preference", "setting": "[4]", "value": "does not induce a conditioned place preference response"},
      {"measurement": "analgesic response in hotplate assay in μOR knockout mice", "setting": "[5]", "value": "completely ablates the observed analgesic response"},
      {"measurement": "κOR agonist activity (in words)", "setting": "[1]", "value": "no detectable κOR or nociceptin receptor agonist activity"},
      {"measurement": "peak level in brain tissue", "setting": "[6]", "value": 197, "unit": "ng per g"},
      {"measurement": "concomitant serum concentration", "setting": "[6]; at brain peak", "value": "1,253 ng/ml"},
      {"measurement": "effect on locomotion in open-field assay", "setting": "[7]", "value": "no apparent effect on locomotion versus vehicle"},
      {"measurement": "metabolism by mouse liver microsomes", "setting": "[8]", "value": 8, "unit": "%"},
      {"measurement": "agonism at other GPCRs", "setting": "[9]", "value": "no potent activity was confirmed with a full dose–response experiment"},
      {"measurement": "nociceptin receptor agonist activity (in words)", "setting": "[10]", "value": "no detectable κOR or nociceptin receptor agonist activity"},
      {"measurement": "per cent maximal possible effect (% MPE), hotplate", "setting": "[11]", "value": 87, "unit": "%"},
      {"measurement": "cataleptic effect", "setting": "[12]", "value": "minimal cataleptic effect compared to morphine"},
      {"measurement": "pKi", "setting": "[13]", "value": 7.74},
      {"measurement": "constipating effect (accumulated faecal boli)", "setting": "[14]", "value": "constipating effect is substantially less than morphine"},
      {"measurement": "pKi", "setting": "[15]", "value": 6.30},
      {"measurement": "effect on respiration frequency", "setting": "[16]", "value": "almost undistinguishable from vehicle"},
      {"measurement": "δOR Gi/o (Glosensor) Emax", "setting": "[17]", "value": 78, "unit": "%"},
      {"measurement": "pEC50", "setting": "[17]; read-out: δOR Gi/o (Glosensor) EC50", "value": 5.72},
      {"measurement": "analgesia in formalin injection nociception assay", "setting": "[18]", "value": "active in a formalin injection nociception assay"},
      {"measurement": "duration of analgesia", "setting": "[19]; hotplate", "value": "up to 180 min"},
      {"measurement": "analgesia on affective versus reflexive component of pain", "setting": "[19]", "value": "solely confers analgesia to the affective component of pain; also recorded: only modulates the attending (affective) component"},
      {"measurement": "SSTR4 activation, cAMP inhibition", "setting": "[20]", "value": "does not show a dose-dependent change in cAMP inhibition"}
    ]},
    {"smiles": "CN(C)[C@H](CNC(=O)NCCc1ccccc1)Cc1ccc(O)cc1", "note": "[PZM22]", "values": [
      {"measurement": "pEC50", "setting": "[21]", "value": 8.74}
    ]},
    {"smiles": "COc1ccsc1CNCC[C@@]1(c2ccccn2)CCOC2(CCCC2)C1", "note": "[TRV130]", "values": [
      {"measurement": "conditioned place preference", "setting": "[4]", "value": "not significant relative to vehicle"},
      {"measurement": "κOR agonist activity (in words)", "setting": "[1]", "value": "potent agonists of the κOR"},
      {"measurement": "μOR internalization", "setting": "[22]", "value": "much decreased receptor internalization versus DAMGO and even morphine"},
      {"measurement": "effect on respiration frequency", "setting": "[16]", "value": "significantly depresses respiration at 15 min"}
    ]},
    {"smiles": "CN1CC[C@]23c4c5ccc(O)c4O[C@H]2[C@@H](O)C=C[C@H]3[C@H]1C5", "note": "[morphine, reference compound]", "values": [
      {"measurement": "conditioned place preference", "setting": "[4]", "value": "Place preference is induced"},
      {"measurement": "analgesia in formalin injection nociception assay", "setting": "[18]", "value": "sustained analgesia"},
      {"measurement": "analgesia on affective versus reflexive component of pain", "setting": "[19]", "value": "induces changes in both behaviours"}
    ]}
  ]
}
